Results taken from the supplement of paper PMC11061612.

Legend:
[1] = system: EN (Endometrial Carcinoma); experiment: combination Emax (second highest fraction inhibited in the dose matrix, 72 h); higher = more inhibition; extreme values may be limits of the assay
Method in brief: (§1)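 Cell lines grown in DMEM/F12 or RPMI with 10% FBS were plated in 1536-well plates and held 24 hours at 37°C, 5% CO2 before 72 hours of exposure to two-drug dose matrices, with DMSO typically at 0.2%. CellTiter-Glo 2.0 luminescence gave viability, which was converted to inhibition. Vehicle wells were set to 0 and blank wells to 1. Combination Emax is the second-highest inhibition in the matrix, and Bliss excess is the observed combination effect minus the expected EA + EB − EA·EB, where EA and EB are the single-agent effects.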

[2] = system: NCI-H28 (Mesothelioma); experiment: as above
Method in brief: as §1

[3] = system: LB771-HNC (Head and Neck Carcinoma); experiment: as above
Method in brief: as §1

[4] = system: HMV-II (Melanoma); experiment: as above
Method in brief: as §1

[5] = system: SU-DHL-6 (B-Cell Non-Hodgkin's Lymphoma); experiment: Bliss excess, mean over the matrix (fraction); higher = more synergy
Method in brief: as §1

[6] = system: 8305C (Thyroid Gland Carcinoma); experiment: as above
Method in brief: as §1

[7] = system: RPMI-6666 (Non-Cancerous); experiment: as above
Method in brief: as §1

[8] = system: RKO (Colorectal Carcinoma); experiment: as above
Method in brief: as §1

[9] = system: SH-4 (Melanoma); experiment: as above
Method in brief: as §1

[10] = system: CAPAN-1 (Pancreatic Carcinoma); experiment: as above
Method in brief: as §1

[11] = system: OC-314 (Ovarian Carcinoma); experiment: as above
Method in brief: as §1

[12] = system: LB771-HNC (Head and Neck Carcinoma); experiment: as above
Method in brief: as §1

[13] = system: 639-V (Bladder Carcinoma); experiment: as above
Method in brief: as §1

[14] = system: RT-112 (Bladder Carcinoma); experiment: as above
Method in brief: as §1

[15] = system: HMV-II (Melanoma); experiment: as above
Method in brief: as §1

[16] = system: CAL-51 (Breast Carcinoma); experiment: as above
Method in brief: as §1

[17] = system: Hs-633T (Other Solid Carcinomas); experiment: as above
Method in brief: as §1

[18] = system: UMC-11 (Other Solid Carcinomas); experiment: as above
Method in brief: as §1

[19] = system: HCC-15 (Squamous Cell Lung Carcinoma); experiment: as above
Method in brief: as §1
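For Bliss excess, mean over the matrix in this document: after 72 h of two-drug dosing.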

Row | SMILES | combination Emax [1] | combination Emax [2] | combination Emax [3] | combination Emax [4] | Bliss excess [5] | Bliss excess [6] | Bliss excess [7] | Bliss excess [8] | Bliss excess [9] | Bliss excess [10] | Bliss excess [11] | Bliss excess [12] | Bliss excess [13] | Bliss excess [14] | Bliss excess [15] | Bliss excess [16] | Bliss excess [17] | Bliss excess [18] | Bliss excess [19]
1 | CC(=O)c1c(C)c2cnc(Nc3ccc(N4CCNCC4)cn3)nc2n(C2CCCC2)c1=O [Palbociclib] + Cc1c2c(nn1C)CSCc1cc(n(C)n1)CSc1cc(c3ccccc3c1)OCCCc1c(C(=O)O)n(C)c3c-2c(Cl)ccc13 [AZD5991] (first compound max 10 µM, 7x7, partner max 1 µM) | 0.566 | 0.413 | 0.448 | 0.625 | 0.0709 | -0.0706 | -0.0533 | 0.0342 | -0.0267 | -0.033 | -0.023 | -0.0622 | -0.0492 | -0.0524 | -0.0185 | 0.0124 | 0.004 | -0.0475 | -0.0501
2 | NC1(C(=O)N[C@@H](CCO)c2ccc(Cl)cc2)CCN(c2ncnc3[nH]ccc23)CC1 [Capivasertib] + C[C@@H]1COCCN1C2=NC(=NC(=C2)C3(CC3)[S@](=N)(=O)C)C4=C5C=CNC5=NC=C4 [AZD6738] (first compound max 10 µM, 7x7, partner max 10 µM) | 0.71 | 0.512 | 0.674 | 0.465 | 0.0023 | -0.0308 | -0.118 | -0.0207 | -0.036 | -0.0423 | -0.024 | -0.0503 | -0.0134 | -0.0698 | -0.0717 | -0.0096 | -0.0002 | 0.0252 | -0.0459
3 | Cn1cnc2c(F)c(Nc3ccc(Br)cc3Cl)c(C(=O)NOCCO)cc21 [Selumetinib] + CCN(CCO)CCCOc1ccc2c(Nc3cc(CC(=O)Nc4cccc(F)c4)[nH]n3)ncnc2c1 [AZD2811] (first compound max 10 µM, 7x7, partner max 1 µM) | 0.569 | 0.352 | 0.152 | 0.717 | 0.0923 | -0.0075 | 0.0696 | 0.088 | -0.0324 | -0.0209 | -0.0193 | -0.0486 | -0.0438 | -0.0741 | -0.0477 | 0.0356 | 0.0395 | -0.0446 | -0.03
4 | CN(C)CCCOc1ccc(-c2ccc3ncc4c(c3c2)n(C2CCOCC2)c(=O)n4C)cn1 [AZD0156] + O=C(c1cc(Cc2n[nH]c(=O)c3ccccc23)ccc1F)N1CCN(C(=O)C2CC2)CC1 [Olaparib] (first compound max 3 µM, partner max 3 µM) | 0.227 | 0.323 | 0.223 | 0.383 | 0.125 | -0.014 | 0.119 | 0.0736 | 0.0237 | -0.0864 | 0.145 | 0.033 | 0.0535 | 0.0239 | -0.0287 | 0.051 | 0.17 | 0.0204 | 0.136
5 | COc1nnc2ccc(N3CCC(c4ccc(OCCN5CCN(C)C(=O)[C@H]5C)cc4)CC3)nn12 [AZD5153] + C=CCn1c(=O)c2cnc(Nc3ccc(N4CCN(C)CC4)cc3)nc2n1-c1cccc(C(C)(C)O)n1 [AZD1775] (first compound max 1 µM, partner max 1 µM) | 0.525 | 0.508 | 0.627 | 0.709 | -0.0656 | -0.077 | -0.0821 | -0.0866 | -0.106 | -0.0397 | 0.0105 | -0.0069 | -0.0367 | -0.0342 | -0.0783 | -0.0111 | -0.0516 | 0.0058 | -0.0356
6 | COc1cc2ncnc(Nc3ccc(F)c(Cl)c3)c2cc1OCCCN1CCOCC1 [Gefitinib] + CC(C)n1c(=O)n(C)c2cnc3cc(F)c(-c4ccc(OCCCN5CCCCC5)nc4)cc3c21 [AZD1390] (first compound max 10 µM, 7x7, partner max 0.3 µM) | 0.248 | 0.346 | 0.0839 | 0.411 | 0.0167 | -0.147 | -0.0657 | -0.0362 | -0.0669 | -0.0286 | -0.0314 | -0.0648 | -0.0765 | -0.0548 | -0.0442 | -0.0485 | -0.0684 | -0.0399 | -0.0442
7 | COc1nnc2ccc(N3CCC(c4ccc(OCCN5CCN(C)C(=O)[C@H]5C)cc4)CC3)nn12 [AZD5153] + CC1(C)CCC(CN2CCN(c3ccc(C(=O)NS(=O)(=O)c4ccc(NCC5CCOCC5)c([N+](=O)[O-])c4)c(Oc4cnc5[nH]ccc5c4)c3)CC2)=C(c2ccc(Cl)cc2)C1 [Venetoclax] (first compound max 1 µM, 7x7, partner max 1 µM) | 0.289 | 0.487 | 0.481 | 0.524 | 0.0401 | -0.0901 | -0.0153 | 0.0122 | -0.124 | -0.0874 | -0.0149 | -0.0704 | -0.0962 | -0.0479 | -0.0695 | -0.0513 | -0.0373 | 0.0234 | -0.0255
